In patent publication US20230348444A1, “NOVEL COMPOUNDS FOR USE IN THE TREATMENT OF DISEASES ASSOCIATED WITH ANGIOTENSIN II” (Vicore Pharma AB, priority 2020, published 2023):
Like-named read-outs stand apart in the source and are kept apart here.

How the values were obtained:
[1] = target: T1, human recombinant AT1 receptor (Homo sapiens, UniProt P30556); test: Binding to AT1 receptor, radiometric scintillation assay (Eurofins protocol ITEM26 and ITEM24); details: read-out: AT1 IC50, ligand 125I (sar1,Ile8)-AT-II, 1 and 10 uM, 2-4 h at 37° C.
T1 sequence (P30556 1-359): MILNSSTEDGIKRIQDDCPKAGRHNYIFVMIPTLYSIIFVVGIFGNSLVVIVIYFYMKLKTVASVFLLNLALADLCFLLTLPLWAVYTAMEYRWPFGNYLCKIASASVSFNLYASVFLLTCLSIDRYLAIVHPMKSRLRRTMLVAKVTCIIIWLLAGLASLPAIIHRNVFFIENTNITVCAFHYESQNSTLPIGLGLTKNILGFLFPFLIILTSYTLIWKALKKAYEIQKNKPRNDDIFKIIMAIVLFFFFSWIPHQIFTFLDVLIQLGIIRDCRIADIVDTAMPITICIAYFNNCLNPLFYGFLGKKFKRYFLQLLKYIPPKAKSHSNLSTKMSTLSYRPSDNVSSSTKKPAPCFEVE
Experimental: (§3) Compounds were evaluated for binding to the human recombinant AT2 and AT1 receptor according to Eurofins protocol ITEM26 and ITEM24 using a radiometric scintillation assay.

[2] = tested on: CYP3A4&5; test: CYP inhibition in human liver microsomes (Eurofins protocol ITEMG232), testosterone substrate; format: in vitro ADME; details: for CYP3A4&5 testosterone Inh %: 10 μM; for inhibition at 10 µM: probe testosterone, read-out: CYP3A4&5 testosterone Inh %
Experimental: (§1) The following substrates were used; CYP1A phenacetin, CYP2B6 bupropion, CYP2C8 paclitaxel and amodiaquine, CYP2C9 diclofenac, CYP2C19 omeprazole, CYP2D6 dextromethorphan, CYP3A midazolam and testosterone.
(§2) At the end of the incubation, the formation of metabolite was monitored by HPLC-MS/MS as the peak area response.

[3] = Metabolic stability in pooled human liver microsomes with or without NADPH; format: in vitro ADME; details: pooled human liver microsomes 0.5 mg/mL in PBS, 1 uM test compound, 37° C.; for half-life at 1 uM: human, pooled human liver microsomes
Experimental: Pooled human liver microsomes in PBS at a concentration of 0.5 mg/mL was incubated with or without 1 mM NADPH for 70 min at 37° C. Test compound was added after 10 minutes to a final concentration of 1 uM. Samples were withdrawn at 0, 5, 15 and 60 minutes and added to test tubes containing acetonitrile, to stop the reaction, and with terfenadine, used as internal standard. After centrifugation at 10000×g for 5 minutes the supernatant was diluted 1:1 with 1% formic acid. Samples were separated on a reverse phase column and detected by triple quadrupole MSMS (Agilant model 6540). The concentration of the parent compound at the different time points was measured with an external standard curve using terfenadine as internal standard and the initial metabolic rate in the presence or absence of NADPH calculated.

[4] = target: CYP2C9 (Homo sapiens, UniProt P11712); test: CYP inhibition in human liver microsomes (Eurofins protocol ITEMG232); format: in vitro ADME; set-up: using isoform-specific substrates incubated with human liver microsomes; tissue Eurofins ITEMG232; host or cells: human liver microsomes; details: substrate diclofenac; for CYP2C9 Inh %: 10 μM; for inhibition at 10 µM: probe diclofenac, read-out: CYP2C9 Inh %
Chain of CYP2C9 (P11712 whole entry, canonical isoform): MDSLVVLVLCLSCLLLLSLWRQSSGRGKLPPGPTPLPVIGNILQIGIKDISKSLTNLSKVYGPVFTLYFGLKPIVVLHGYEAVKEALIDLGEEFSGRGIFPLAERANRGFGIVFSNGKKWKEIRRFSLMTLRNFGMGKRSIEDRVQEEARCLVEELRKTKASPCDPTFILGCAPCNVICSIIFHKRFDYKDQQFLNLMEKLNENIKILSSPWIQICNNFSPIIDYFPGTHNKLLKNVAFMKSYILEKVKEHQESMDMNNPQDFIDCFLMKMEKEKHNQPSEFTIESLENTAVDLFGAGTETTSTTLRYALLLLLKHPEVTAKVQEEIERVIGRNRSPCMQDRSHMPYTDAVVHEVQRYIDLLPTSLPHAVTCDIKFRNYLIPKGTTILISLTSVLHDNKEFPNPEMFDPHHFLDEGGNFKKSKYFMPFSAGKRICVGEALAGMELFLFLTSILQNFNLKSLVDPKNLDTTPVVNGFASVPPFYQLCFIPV
Experimental: as §1, §2

[5] = target: T1, human recombinant AT1 receptor; test: biochemical
Experimental: as §3

[6] = target: T2, human recombinant AT2 receptor (Homo sapiens, UniProt P50052); test: biochemical
T2 sequence (P50052 1-363): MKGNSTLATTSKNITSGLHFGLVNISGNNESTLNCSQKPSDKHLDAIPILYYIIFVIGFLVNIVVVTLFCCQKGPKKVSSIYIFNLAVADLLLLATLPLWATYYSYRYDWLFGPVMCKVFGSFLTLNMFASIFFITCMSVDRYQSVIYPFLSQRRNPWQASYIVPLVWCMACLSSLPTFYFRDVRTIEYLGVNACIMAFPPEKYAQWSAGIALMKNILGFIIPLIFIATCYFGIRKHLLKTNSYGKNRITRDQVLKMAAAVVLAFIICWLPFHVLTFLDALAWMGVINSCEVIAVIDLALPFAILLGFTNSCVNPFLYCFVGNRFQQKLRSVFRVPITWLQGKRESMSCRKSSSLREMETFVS
Experimental: as §3

[7] = with 1 mM NADPH, read-out: T1/2, +NaDPH
[8] = without NADPH, read-out: T1/2, no NaDPH

Compound	IC50 [1] [µM]	CYP3A4&5 testosterone Inh % [2] [%]	T1/2, +NaDPH ([3]; with 1 mM NADPH) [min]	T1/2, no NaDPH ([3]; without NADPH) [min]	CYP2C9 Inh % [4] [%]	IC50 [5] [µM]	inhibition at 10 µM [2] [%]	IC50 [6] [µM]	half-life at 1 uM [3, 7] [min]	half-life at 1 uM [3, 8] [min]	inhibition at 10 µM [4] [%]
CCOC(=O)NS(=O)(=O)c1sc(CC(C)C)cc1-c1ccc(Cn2ccnc2C)c(F)c1.O=C(O)C(F)(F)F [Example 1, Ethyl (3-(3-fluoro-4-((2-methyl-1H-imidazol-1-yl)methyl)phenyl)-5-isobutylthiophen-2-yl)sulfonvicarbamate trifluoroacetic acid]	> 1	−2	50	60	64						
COCCOC(=O)NS(=O)(=O)c1sc(CC(C)C)cc1-c1ccc(Cn2ccnc2C)c(F)c1.O=C(O)C(F)(F)F [Example 3]	> 1	−20	>60	>60	58						
CCc1nccn1Cc1ccc(-c2cc(CC(C)C)sc2S(=O)(=O)NC(=O)OCc2ccc(F)cc2)cc1F.O=C(O)C(F)(F)F [Example 6, 4-Fluorobenzyl (3-(4((2-ethyl-1H-imidazol-1-yl)methyl)-3-fluorophenyl)-5-isobutylthio-phen-2-yl)sulfonylcarbamate trifluoroacetic acid]	> 1	13	7	50	72						
CCOC(=O)NS(=O)(=O)c1sc(CC(C)C)cc1-c1ccc(Cn2ccnc2CC)c(F)c1.O=C(O)C(F)(F)F [Example 7, Ethyl (3-(4-((2-ethyl-1H-imidazol-1-yl)methyl)-3-fluorophenyl)-5-isobutylthiophen-2-30 yl)sulfonylcarbamate trifluoroacetic acid]	> 1	18	40	40	64						
CCOC(=O)NS(=O)(=O)c1sc(CC(C)C)cc1-c1ccc(Cn2ccnc2C(C)C)c(F)c1.O=C(O)C(F)(F)F [Example 8, Ethyl (3-(3-fluoro-4-((2-isopropyl-1H-imidazol-1-yl)methyl)phenyl)-5-isobutylthio-phen-2-yl)sulfonylcarbamate trifluoroacetic acid]	> 1	−20	46	53	58						
Cc1nccn1Cc1c(F)cc(-c2cc(CC(C)C)sc2S(=O)(=O)NC(=O)OCCO)cc1F [Example 18, 2-Hydroxyethyl (3-(3,5-difluoro-4-((2-methyl-1H-imidazol-1-yl)methyl)phenv1)-5-isobutylthiophen-2-yl)sulfonylcarbamate]	16	1.7	4	>60	77.0						
Cc1nccn1Cc1ccc(-c2cc(CC(C)C)sc2S(=O)(=O)NC(=O)OCCOC(=O)C(C)(C)C)cc1F [Example 19, 2-((((3-(3-Fluoro-4-((2-methyl-1H-imidazol-1-yl)methyl)phenyl)-5-isobutylthiophen-2-yl)sulfonyl)carbamoyl)oxy)ethyl pivalate]						9	20.7	0.0041	1	12	62.3
CC(C)Cc1cc(-c2ccc(Cn3ccnc3C(C)(C)C)c(F)c2)c(S(=O)(=O)NC(=O)c2ccccn2)s1 [Example 27, N-((3-(4-((2-(Tert-Butyl)-1H-imidazol-1-yl)methyl)-3-fluorophenyl)-5-isobutylthio-phen-2-yl)sulfonyl)picolinamide]						2.3	27.4	0.00182	4	4	58.4
